In ChEMBL document CHEMBL1138843, “Pyrazolo[1,5-a]pyrimidines: estrogen receptor ligands possessing estrogen receptor beta antagonist activity” (J Med Chem, 2004) one finds Binding affinity data, which are given here for 44 compounds.

Structures are written as SMILES.

Experiment [1] has as its target T1, Estrogen receptor (Homo sapiens) (UniProt P03372).
T1 sequence (whole entry): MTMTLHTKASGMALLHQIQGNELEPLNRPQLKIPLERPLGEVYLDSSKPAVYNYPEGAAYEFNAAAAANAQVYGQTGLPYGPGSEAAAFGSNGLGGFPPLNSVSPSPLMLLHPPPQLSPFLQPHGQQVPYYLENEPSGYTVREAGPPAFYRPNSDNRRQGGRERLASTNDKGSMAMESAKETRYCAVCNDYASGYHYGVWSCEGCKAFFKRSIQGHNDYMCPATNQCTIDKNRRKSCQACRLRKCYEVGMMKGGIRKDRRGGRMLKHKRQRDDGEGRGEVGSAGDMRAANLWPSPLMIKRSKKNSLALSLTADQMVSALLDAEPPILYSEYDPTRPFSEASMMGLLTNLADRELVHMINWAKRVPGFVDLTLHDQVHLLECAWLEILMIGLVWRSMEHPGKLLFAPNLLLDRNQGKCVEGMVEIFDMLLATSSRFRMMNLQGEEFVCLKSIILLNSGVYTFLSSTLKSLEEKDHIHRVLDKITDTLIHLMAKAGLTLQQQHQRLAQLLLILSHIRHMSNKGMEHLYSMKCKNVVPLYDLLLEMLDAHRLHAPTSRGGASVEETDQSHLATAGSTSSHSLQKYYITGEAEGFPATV
Description: Relative binding affinity for human estrogen receptor 1 compared to [3H]estradiol (100%)

Experiment [2] has as its target Estrogen receptor beta (Homo sapiens) (UniProt Q92731).
Description: Relative binding affinity for human estrogen receptor 2 compared to [3H]estradiol (100%)
Also: unit not given here.

Sequence of Estrogen receptor beta (Homo sapiens) (Q92731 whole entry): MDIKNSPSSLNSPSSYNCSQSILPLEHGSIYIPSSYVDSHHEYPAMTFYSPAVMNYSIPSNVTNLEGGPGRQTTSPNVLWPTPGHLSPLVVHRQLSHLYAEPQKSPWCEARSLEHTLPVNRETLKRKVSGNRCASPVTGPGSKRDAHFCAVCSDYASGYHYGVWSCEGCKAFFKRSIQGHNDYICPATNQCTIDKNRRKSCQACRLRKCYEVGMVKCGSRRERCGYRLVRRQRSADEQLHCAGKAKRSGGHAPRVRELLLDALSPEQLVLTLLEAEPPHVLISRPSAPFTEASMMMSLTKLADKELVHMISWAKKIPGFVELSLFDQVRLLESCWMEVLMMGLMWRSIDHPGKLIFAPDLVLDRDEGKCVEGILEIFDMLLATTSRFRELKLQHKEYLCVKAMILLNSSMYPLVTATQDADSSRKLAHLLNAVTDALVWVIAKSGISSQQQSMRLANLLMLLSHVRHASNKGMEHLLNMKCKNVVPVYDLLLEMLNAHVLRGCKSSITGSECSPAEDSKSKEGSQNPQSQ

In the case of `Oc1ccc(-c2c(-c3cccc(O)c3)nn3cccnc23)cc1`, the Binding affinity in experiment [1] and in experiment [2] was under 0.01 in each case.

`CCc1cc(CC)n2nc(-c3ccc(O)cc3)c(-c3cccc(O)c3)c2n1`: the Binding affinity in experiment [1] and in experiment [2] was under 0.01 in each case.

Take `Cc1cc(C)n2nc(-c3cccc(O)c3)c(-c3ccc(O)cc3)c2n1`: the Binding affinity in experiment [1] and in experiment [2] was under 0.01 each time.

Regarding `Cc1cc(C)n2nc(-c3ccc(O)cc3)c(-c3ccccc3)c2n1`, the Binding affinity in experiment [1] came out at 0.02; in experiment [2] it was 0.11.

`CCc1cc(CC)n2nc(-c3ccc(O)cc3)c(-c3ccccc3)c2n1`: the Binding affinity is 0.13 in experiment [1] and 0.06 in experiment [2].

As for `Cc1nc2c(-c3ccc(O)cc3)c(-c3cccc(O)c3)nn2c(C)c1C`, the Binding affinity in experiment [1] and in experiment [2] was under 0.01 in each case.

For `Oc1ccc(-c2nn3c(C(F)(F)F)cc(C(F)(F)F)nc3c2-c2cccc(O)c2)cc1`, the Binding affinity in experiment [1] is 0.04; in experiment [2], 0.08.

On to `Oc1ccc(-c2nn3c(-c4ccccc4)cc(-c4ccccc4)nc3c2-c2ccccc2)cc1`, for which the Binding affinity in experiment [1] and in experiment [2] was under 0.01 throughout.

Take `Cc1c(C(C)(C)C)nc2c(-c3ccccc3)c(-c3ccc(O)cc3)nn2c1C(C)(C)C`: the values for the Binding affinity in experiment [1] and in experiment [2] were 0.83 and 0.02, respectively.

`Oc1ccc(-c2nn3cccnc3c2-c2ccccc2)cc1`: the Binding affinity in experiment [1] was under 0.01; in experiment [2], 0.02.

Take `Cc1c(C(C)(C)C)nc2c(-c3ccc(O)cc3)c(-c3ccc(O)cc3)nn2c1C(C)(C)C`: the Binding affinity was found to be 0.13 in experiment [1] and 0.16 in experiment [2].

`Cc1c(C(C)(C)C)nc2c(-c3ccc(O)cc3)c(-c3cccc(O)c3)nn2c1C(C)(C)C`: the Binding affinity in experiment [1] and in experiment [2] was under 0.01 in each case.

With `CC(C)c1cc(C(C)C)n2nc(-c3ccc(O)cc3)c(-c3cccc(O)c3)c2n1`, the figures for the Binding affinity in experiment [1] and in experiment [2] were 0.01 and under 0.01, respectively.

Turning to `Cc1cc(C)n2nc(-c3ccc(O)cc3)c(-c3cccc(O)c3)c2n1`, the Binding affinity in experiment [1] and in experiment [2] was under 0.01 each time.

For the compound `Oc1ccc(-c2c(-c3cccc(O)c3)nn3c(C(F)(F)F)cc(C(F)(F)F)nc23)cc1`, the values for the Binding affinity in experiment [1] and in experiment [2] were 0.01 and 0.04, respectively.

In the case of `CC(C)c1cc(C(C)C)n2nc(-c3ccc(O)cc3)c(-c3ccccc3)c2n1`, the Binding affinity in experiment [1] is 0.14; in experiment [2], 0.06.

Turning to `Oc1ccc(-c2c(-c3cccc(O)c3)nn3c(-c4ccccc4)cc(-c4ccccc4)nc23)cc1`, the Binding affinity in experiment [1] and in experiment [2] was under 0.01 throughout.

On to `Cc1c(C(C)(C)C)nc2c(-c3ccc(O)cc3)c(-c3ccccc3)nn2c1C(C)(C)C`, for which the values for the Binding affinity in experiment [1] and in experiment [2] were under 0.01 and 0.01, respectively.

Consider `CCc1cc(CC)n2nc(-c3ccc(O)cc3)c(-c3ccc(O)cc3)c2n1`, for which the Binding affinity was 0.16 in experiment [1] and 0.07 in experiment [2].

Turning to `Cc1cc(C)n2nc(-c3ccccc3)c(-c3ccc(O)cc3)c2n1`, the Binding affinity in experiment [1] is 0.01; in experiment [2] it was 0.05.

Turning to `Oc1ccc(-c2nn3c(C(F)(F)F)cc(C(F)(F)F)nc3c2-c2ccccc2)cc1`, the results for the Binding affinity in experiment [1] and in experiment [2] were 0.39 and 0.41, respectively.

`Cc1nc2c(-c3cccc(O)c3)c(-c3ccc(O)cc3)nn2c(C)c1C`: the Binding affinity in experiment [1] and in experiment [2] was under 0.01 each time.

Regarding `Oc1ccc(-c2c(-c3ccccc3)nn3c(-c4ccccc4)cc(-c4ccccc4)nc23)cc1`, the Binding affinity in experiment [1] and in experiment [2] was under 0.01 each time.

As for `FC(F)(F)c1cc(C(F)(F)F)n2nc(-c3ccccc3)c(-c3ccccc3)c2n1`, the Binding affinity in experiment [1] and in experiment [2] was under 0.01 throughout.

In the case of `CCc1cc(CC)n2nc(-c3ccccc3)c(-c3ccccc3)c2n1`, the Binding affinity in experiment [1] and in experiment [2] was under 0.01 throughout.

Turning to `Oc1ccc(-c2c(-c3ccccc3)nn3c(C(F)(F)F)cc(C(F)(F)F)nc23)cc1`, the Binding affinity in experiment [1] was 0.01; in experiment [2], 0.05.

On to `Cc1cc(C)n2nc(-c3ccc(O)cc3)c(-c3ccc(O)cc3)c2n1`, for which the Binding affinity is 0.04 in experiment [1] and 0.07 in experiment [2].

Take `Cc1cc(C)n2nc(-c3ccccc3)c(-c3ccccc3)c2n1`: the Binding affinity in experiment [1] and in experiment [2] was under 0.01 throughout.

As for `Cc1nc2c(-c3ccc(O)cc3)c(-c3ccc(O)cc3)nn2c(C)c1C`, the Binding affinity in experiment [1] and in experiment [2] was 0.01 in each case.

Turning to `CC(C)c1cc(C(C)C)n2nc(-c3ccc(O)cc3)c(-c3ccc(O)cc3)c2n1`, the Binding affinity came out at 0.1 in experiment [1] and 0.07 in experiment [2].

Consider `CCc1cc(CC)n2nc(-c3cccc(O)c3)c(-c3ccc(O)cc3)c2n1`, for which the Binding affinity in experiment [1] and in experiment [2] was under 0.01 throughout.

For `Cc1c(C(C)(C)C)nc2c(-c3cccc(O)c3)c(-c3ccc(O)cc3)nn2c1C(C)(C)C`, the Binding affinity in experiment [1] came to 0.02; in experiment [2], 0.01.

As to `Oc1ccc(-c2nn3cccnc3c2-c2ccc(O)cc2)cc1`, the Binding affinity in experiment [1] was under 0.01; in experiment [2], 0.1.

Take `Oc1ccc(-c2nn3cccnc3c2-c2cccc(O)c2)cc1`: the Binding affinity in experiment [1] and in experiment [2] was under 0.01 in each case.

`CC(C)c1cc(C(C)C)n2nc(-c3ccccc3)c(-c3ccc(O)cc3)c2n1`: the Binding affinity was found to be 0.01 in experiment [1] and 0.05 in experiment [2].

As to `c1ccc(-c2nn3cccnc3c2-c2ccccc2)cc1`, the Binding affinity in experiment [1] and in experiment [2] was under 0.01 in each case.

Regarding `Oc1ccc(-c2nn3c(-c4ccccc4)cc(-c4ccccc4)nc3c2-c2cccc(O)c2)cc1`, the Binding affinity in experiment [1] and in experiment [2] was under 0.01 throughout.

Regarding `CC(C)c1cc(C(C)C)n2nc(-c3cccc(O)c3)c(-c3ccc(O)cc3)c2n1`, the results for the Binding affinity in experiment [1] and in experiment [2] were under 0.01 and 0.01, respectively.

In the case of `Cc1nc2c(-c3ccccc3)c(-c3ccc(O)cc3)nn2c(C)c1C`, the Binding affinity amounted to 0.01 in experiment [1] and 0.02 in experiment [2].

In the case of `Oc1ccc(-c2nn3c(C(F)(F)F)cc(C(F)(F)F)nc3c2-c2ccc(O)cc2)cc1`, the Binding affinity was 1.9 in experiment [1] and 1.7 in experiment [2].

Consider `Oc1ccc(-c2nn3c(-c4ccccc4)cc(-c4ccccc4)nc3c2-c2ccc(O)cc2)cc1`, for which the Binding affinity amounted to 0.02 in experiment [1] and 0.03 in experiment [2].

In the case of `Oc1ccc(-c2c(-c3ccccc3)nn3cccnc23)cc1`, the Binding affinity in experiment [1] was 0.01; in experiment [2] it was 0.05.

On to `Cc1nc2c(-c3ccc(O)cc3)c(-c3ccccc3)nn2c(C)c1C`, for which the Binding affinity in experiment [1] was under 0.01; in experiment [2], 0.01.

For `CCc1cc(CC)n2nc(-c3ccccc3)c(-c3ccc(O)cc3)c2n1`, the Binding affinity in experiment [1] was found to be 0.02; in experiment [2], 0.05.
